How the values were obtained:
[1] = Batch hydroformylation of butene-1 (Examples 14, 19); conditions: 100° C., 300 ppm Rh
Description: (§1) Each rhodium catalytic precursor solution so prepared was then employed to hydroformylate propylene in a magnetically stirred, 100 mL capacity, stainless steel autoclave which was attached to a gas manifold for introducing gases to the desired partial pressures. The autoclave was also equipped with a pressure calibrator for determining reaction pressure to ±0.01 psia. and a platinum resistance thermometer for determining reactor solution temperatures to ±0.10° C. The reactor was heated externally by two 300 watt heating bands. The reactor solution temperature was controlled by a platinum resistance sensor connected to an external proportional temperature controller for controlling the temperature of the external band heaters.
(§2) In each non-aqueous hydroformylation reaction, about 15 milliliters (about 14 grams) of the rhodium catalytic precursor solution so prepared was charged to the autoclave reactor under nitrogen and heated to the reaction temperature employed (as given in Table 1 below). The reactor was then vented down to 5 psig. and a premixed gas mixture of 1:1:1 carbon monoxide:hydrogen:propylene was introduced into the reactor via the gas manifold (partial pressures given in Table 1) and the propylene so hydroformylated.
(§3) The hydroformylation reaction rate in gram moles per liter per hour of C4 aldehydes produced was determined from sequential 5 psia. pressure drops in the reactor spanning the nominal operating pressure in the reactor, while the mole ratio of linear (n-butyraldehyde) to branched (2-methylpropionaldehyde) product was measured by gas chromatography and the results are given in Table 1 below.
(§4) The same procedure and conditions employed in Example 1 of preparing various rhodium catalytic precursor solutions using rhodium dicarbonyl acetylacetonate, about a 3:1 (wt.:wt. ratio) mixture of Texanol® and CARBOWAX® TPEG-990 (about 25 wt. %) as the solubilizing agent, and a monosulfonated triphenylphosphine sodium salt ligand having the formula [drawing 26] and hydroformylating an olefin was repeated employing the various rhodium complex catalyst precursor solutions and using different alpha olefins as the hydroformylation feedstocks and the reaction conditions as shown in Table 14 below.
(§5) A comparison of the catalytic activity of aqueous and non-aqueous solutions of monosulfonated triphenylphosphine sodium salt ligand promoted catalysts in hydroformylating various molecular weight alphe-olefins was determined as follows.
The same procedure and conditions employed in Example 1 of preparing rhodium catalytic precursor solutions, using rhodium dicarbonyl acetylacetonate, monosulfonated triphenylphosphine sodium salt having the formula as shown in Example 4 in either a non-aqueous organic solubilizing agent solution or water, as given in Table 19 below, and hydroformylating the various alpha-olefins was repeated employing the various rhodium complex precursor solutions and hydroformylation reaction conditions as shown in Table 19 below. Both the aqueous and non-aqueous hydroformylation reactions were conducted under identical conditions with regard to temperature, rhodium and ligand concentration, hydrogen and carbon monoxide partial pressure and olefin concentration.

[2] = Batch hydroformylation of octene-1 (Examples 14, 15, 19)
Description: as §1, §2, §3, §4
The same procedure and conditions employed in Example 1 of preparing various rhodium catalytic precursor solutions using rhodium dicarbonyl acethylacetonate, a monosulfonated triphenylphosphine sodium salt ligand having the formula [drawing 27] and various mixtures of Texanol® and varying amounts (about 15 wt. % in Run No. 1 and about 10 wt. % in Run Nos. 2 to 5) of different added solubilizing agents as given in Table 15 below, and hydroformylating octene-1 was repeated employing the various rhodium complex catalyst precursor solutions and the reaction conditions as shown in Table 15 below.
as §5

[3] = Continuous single pass hydroformylation of butene-1 (Examples 3, 4, 5, 7, 12); conditions: Texanol/PEG-600 10:1
Description: Continuous hydroformylation of butene-1 a monosulfonated triphenylphosphine metal salt ligand was conducted in the following manner.
The non-aqueous hydroformylation was conducted in a glass reactor operating in a continuous single pass butene-1 hydroformylation mode. The reactor consisted of a three-ounce pressure bottle submersed in an oil bath with a lass front for viewing. About 20-mL of a freshly prepared rhodium catalytic precursor solution was charged to the reactor with a syringe, after purging the system with nitrogen. […] After closing the reactor, the system was again purged with nitrogen and the oil bath was heated to furnish the desired hydroformylation reaction temperature. The hydroformylation reaction was conducted at a total gas pressure of about 160 psig., the partial pressures of hydrogen, carbon monoxide, and butene-1 being given in Table 3 below, the remainder being nitrogen and aldehyde product.
The flows of the feed gases (carbon monoxide, hydrogen, butene-1 and nitrogen) were controlled individually with mass flow meters and the feed gases dispersed into the precursor solution via microporous stainless steel spargers. The unreacted portion of the feed gases was stripped out with the product C5 aldehydes and the outlet gas analyzed over about 12 days of continuous operation.

[4] = Continuous catalyst liquid recycle hydroformylation of octene-1 (Example 6)
Description: In a continuous catalyst liquid recycle manner, an olefin starting material of octene-1 was hydroformylated for six days as follows.
The liquid recycle reactor system employed contained two 2.8 liter stainless steel stirred tank reactors, connected in series, each containing a vertically mounted agitator and a circular tubular sparger near the bottom of the reactor for feeding the syn gas. The sparger contained a plurality of holes of sufficient size to provide the desired gas flow into the liquid body. Reactor 1 contained a silicone oil shell as means of bringing the contents of the reactors up to reaction temperature while the reaction solution in Reactor 2 was heated by an electrical heater. Both reactors contained internal cooling coils for controlling the reaction temperature. Reactors 1 and 2 were connected via a line to transfer any unreacted gases from reactor 1 to reactor 2 and were further connected via a line so that a portion of the liquid reaction solution containing aldehyde product and catalyst from reactor 1 could be pumped into reactor 2 wherein the unreacted olefin of reactor 1 is further hydroformylated in reactor 2.
Each reactor also contained a pneumatic liquid level controller for automatic control of the liquid levels in the reactors. Reactor 1 further contained a line for introducing the liquid olefin using a metering pump, and a line for introducing syn gas through the sparger, while make up syn gas was added to reactor 2 via the same transfer line carrying the unreacted syn gas from reactor 1. Reactor 2 also contained a blow-off vent for removal of the unreacted gases. A line from the bottom of reactor 2 was connected to the top of a vaporizer so that a portion of the liquid reaction solution could be pumped from reactor 2 to the vaporizer. The vaporizer was maintained at reduced pressure with the help of a vacuum pump. Vaporized aldehyde was disengaged from the non-volatilized components of the liquid reaction solution in the gas-liquid separator part of the vaporizer. The remaining non-volatilized catalyst containing liquid reaction solution was pumped through a recycle line back into reactor 1. The recycle line also contained a pneumatic liquid level controller. The vaporized aldehyde product was passed into a water-cooled condenser, liquified and collected in a product receiver.

[5] = Texanol/TPEG-990 3:1, 8.7 wt. % ligand, 75 psia 4:1 H2:CO
[6] = aqueous (water as solvent), 90 psia 1:1 H2:CO
[7] = non-aqueous (Texanol/Carbowax TPEG990 2.6:1), 90 psia 1:1 H2:CO
[8] = Texanol/Benzonitrile (8:1), 90° C., 200 ppm Rh, 10 wt. % ligand, 75 psia 4:1 H2:CO
[9] = Texanol/Carbowax PEG 150, 90° C., 200 ppm Rh, 10 wt. % ligand, 75 psia 4:1 H2:CO
[10] = Texanol/Dimethyl Sulfoxide (5.5:1), 90° C., 200 ppm Rh, 10 wt. % ligand, 75 psia 4:1 H2:CO
[11] = Texanol/Niax PPG-1025, 90° C., 200 ppm Rh, 10 wt. % ligand, 75 psia 4:1 H2:CO
[12] = Texanol/Sulfolane (8:1), 90° C., 200 ppm Rh, 10 wt. % ligand, 75 psia 4:1 H2:CO
[13] = Texanol/TPEG-990 3:1, 100° C., 300 ppm Rh, 8.7 wt. % ligand, 75 psia 4:1 H2:CO
[14] = aqueous (water as solvent), 100° C., 300 ppm Rh, 90 psia 1:1 H2:CO
[15] = non-aqueous (Texanol/Carbowax TPEG990 2.6:1), 100° C., 300 ppm Rh, 90 psia 1:1 H2:CO
[16] = day 0.9, […], CO 51, H2 59, C4H8 20 psia
[17] = day 2.0, 101 °C, CO 51, H2 47, C4H8 22 psia
[18] = day 3.0, 101 °C, CO 20, H2 53, C4H8 24 psia
[19] = day 4.0, 101 °C, CO 20, H2 30, C4H8 39 psia
[20] = day 5.6, 101 °C, CO 15, H2 64, C4H8 31 psia
[21] = day 5.9 (so in the source), 101 °C, CO 15, H2 63, C4H8 31 psia
[22] = day 1, reactors 80.1/85.8, CO 17.0/9.9 psia
[23] = day 2, reactors 80.0/85.6, CO 7.8/2.2 psia
[24] = day 3, reactors 80.1/85.7, CO 8.1/6.5 psia
[25] = day 6, reactors 80.0/85.0, CO 10.1/8.3 psia

## O=S(=O)([O-])c1cccc(P(c2ccccc2)c2ccccc2)c1.[Na+]
[1]; [5]
  Linear/Branched Aldehyde Mole Ratio: 12.8
  Reaction Rate: 5.96 G moles/L/hr
[1]; [6]
  Linear/Branched Aldehyde Mole Ratio: 37.1
  Reaction Rate: 0.44 G Moles/L/Hr
[1]; [7]
  Linear/Branched Aldehyde Mole Ratio: 5.1
  Reaction Rate: 6.94 G Moles/L/Hr
[2]; [8]
  Linear/Branched Aldehyde Mole Ratio: 26.6
  Reaction Rate (C9 aldehydes): 0.47 G moles/L/hr
[2]; [9]
  Linear/Branched Aldehyde Mole Ratio: 17.6
  Reaction Rate (C9 aldehydes): 1.12 G moles/L/hr
[2]; [10]
  Linear/Branched Aldehyde Mole Ratio: 18.7
  Reaction Rate (C9 aldehydes): 0.95 G moles/L/hr
[2]; [11]
  Linear/Branched Aldehyde Mole Ratio: 23.9
  Reaction Rate (C9 aldehydes): 0.71 G moles/L/hr
[2]; [12]
  Linear/Branched Aldehyde Mole Ratio: 19.1
  Reaction Rate (C9 aldehydes): 0.98 G moles/L/hr
[2]; [13]
  Linear/Branched Aldehyde Mole Ratio: 14.8
  Reaction Rate: 4.17 G moles/L/hr
[2]; [14]
  Linear/Branched Aldehyde Mole Ratio: 40.9
  Reaction Rate: 0.11 G Moles/L/Hr
[2]; [15]
  Linear/Branched Aldehyde Mole Ratio: 5.8
  Reaction Rate: 2.84 G Moles/L/Hr
[3]; [16]
  Linear/Branched Aldehyde Mole Ratio: 7.68
  Rate (C5 aldehydes), daily average: 1.68 gmoles/L/Hr
[3]; [17]
  Linear/Branched Aldehyde Mole Ratio: 9.21
  Rate (C5 aldehydes), daily average: 1.81 gmoles/L/Hr
[3]; [18]
  Linear/Branched Aldehyde Mole Ratio: 21.08
  Rate (C5 aldehydes), daily average: 1.60 gmoles/L/Hr
[3]; [19]
  Linear/Branched Aldehyde Mole Ratio: 19.83
  Rate (C5 aldehydes), daily average: 2.50 gmoles/L/Hr
[3]; [20]
  Linear/Branched Aldehyde Mole Ratio: 23.74
  Rate (C5 aldehydes), daily average: 2.05 gmoles/L/Hr
[3]; [21]
  Linear/Branched Aldehyde Mole Ratio: 22.82
  Rate (C5 aldehydes), daily average: 2.06 gmoles/L/Hr
[4]; [22]
  C9 Aldehydes (rate): 1.02 gmoles/L/hr
  Linear/Branched Aldehyde Ratio: 14.0
[4]; [23]
  C9 Aldehydes (rate): 0.84 gmoles/L/hr
  Linear/Branched Aldehyde Ratio: 27.2
[4]; [24]
  C9 Aldehydes (rate): 0.81 gmoles/L/hr
  Linear/Branched Aldehyde Ratio: 24.7
[4]; [25]
  C9 Aldehydes (rate): 1.02 gmoles/L/hr
  Linear/Branched Aldehyde Ratio: 22.5
